Source: paper PMC8370201, “Amaryllidaceae Alkaloid Cherylline Inhibits the Replication of Dengue and Zika Viruses” (Antimicrobial Agents and Chemotherapy, 2021)
“Also recorded” adds a separate entry of the source.

Columns and labels:
DENVGFP [1] = test: Time-of-drug-addition and -removal assays, DENVGFP in Huh7 cells; type: cell-based, dengue virus (DENV); conditions: Huh7, treated 2 h prior to infection, removed 2 hpi, microscopy
Protocol: For the time-of-drug-addition assay, at the time of infection, AAs were added in wells corresponding to 0 h. At 2 hpi, viral inoculum was removed from every well, and AAs were added back to wells corresponding to 0 h and 2 h. At 4, 7, 12, and 24 hpi, AAs or DMSO diluted in DMEM was added to the appropriate wells. After 72 h, cells were trypsinized and fixed in 4% formaldehyde to measure the percentage of infected cells on an FC500 MPL cytometer. Alternatively, pictures of Hoechst 33342-stained cells were acquired on an Axio Observer microscope. All assays were performed in triplicate.
At 2 hpi, plates were washed, and medium was replaced to remove remaining viruses in the supernatant. AAs were added back to all wells, except the ones corresponding to 2 h of treatment, in which fresh medium exclusive of any AA was added. Accordingly, after 4, 7, and 12 h of infection, the supernatant was replaced by fresh medium in corresponding wells. After 72 h of incubation, results were acquired as for the time-of-drug-addition assay. All assays were performed in triplicate.

[2] = Cell viability (ATP, Cell-Titer GLO) in Huh7.5 cells; type: cell-based; conditions: human
Protocol: Where indicated for Huh7.5 and Vero E6 cells and PBMCs, cell viability was measured by monitoring of cellular ATP levels using the Cell-Titer GLO assay kit (Promega). Briefly, 10× 10^3 to 20 × 10^3 cells in 50 to 100 μl were seeded in 48-well or 96-well plates and cultured overnight. AAs were added at the designated concentrations for 24 or 48 h, as specified in the text. Then, 50 to 100 μl of room temperature Cell-Titer GLO reagent was added in each well to room temperature-equilibrated cell plates. Plates were rocked for 2 min and rested for 10 min, and the luminescence signal was measured using a microplate spectrophotometer (Biotek Synergy H1 or Tecan Spark multimode microplate reader). Viability was expressed as a fold change calculated using the value of DMSO-treated cells at each concentration; for each AA and CC50, values were determined.

DENV2 16881s = test: Plaque assay, infectious titers of WT DENV2 16881s from Huh7.5 cells; type: cell-based, dengue virus (DENV); conditions: AAs 50 μM, treated 2 hpi, supernatant 48 h later
Protocol: Huh7.5 cells were infected with DENV 16881s, ZIKV H/PF/2013, or ZIKV MR766 (MOI, 0.1) or left uninfected. […] Supernatants were harvested 2 days pi, and PFU were determined by plaque assay on VeroE6 cells. Cells incubated overnight (2 × 10^5 cells/well in 24-well plates) were infected with 10-fold serially diluted virus-containing supernatants for 2 h at 37°C. Inoculum was then replaced with MEM (Life Technologies) containing 1.5% carboxymethylcellulose (Millipore-Sigma). ZIKV- and DENV-infected cells were incubated for 5 and 7 days, respectively. One volume of 10% formaldehyde was added to the cells for fixation. Two hours later, cells were washed with tap water and stained with a 1% crystal violet/10% ethanol solution for 30 min. Wells were rinsed with tap water, and the number of plaques were counted to calculate virus titers.

ZIKV H/PF/2013 = test: Plaque assay, infectious titers of WT ZIKV H/PF/2013 from Huh7.5 cells; type: cell-based, Zika virus (ZIKV); conditions: treated 2 hpi, supernatant 48 h later
ZIKV MR766 = test: Plaque assay, infectious titers of WT ZIKV MR766 from Huh7.5 cells; type: cell-based, Zika virus (ZIKV); conditions: treated 2 hpi, supernatant 48 h later
DENVR2A [3] = conditions: CC50/EC50, Huh7.5
ZIKVR2A [4] = conditions: for ZIKVR2A replication: Huh7.5 cells
DENVR2A [5] = test: microbe, parasite or virus in culture; conditions: Dengue virus, Huh7.5, read-out: EC50 (μM) for DENVR2A
ZIKVR2A [6] = test: microbe, parasite or virus in culture; conditions: Zika virus, Huh7.5, read-out: EC50 (μM) for ZIKVR2A, Huh7.5 cells, luciferase at 48 hpi
DENVGFP [7] = test: DENVGFP reporter virus infection of Huh7 cells (flow cytometry / microscopy); conditions: for anti-DENV activity in screening (GFP microscopy, words): Huh7, treated 2 h before DENVGFP MOI 0.15, 72 hpi, at the chosen concentration

Structure (SMILES) | infection after removal of compound 2 hpi vs continuous treatment (DENVGFP [1]) | CC50 at 48 h [2] [µM] | production of DENV infectious particles (words) (DENV2 16881s) | production of ZIKV H/PF/2013 infectious particles (words) (ZIKV H/PF/2013) | production of ZIKV MR766 infectious particles (words) (ZIKV MR766) | SI DENVR2A (therapeutic selectivity index) (DENVR2A [3]) | ZIKVR2A replication (ZIKVR2A [4]) | EC50 (DENVR2A [5]) [µM] | EC50 (ZIKVR2A [6]) [µM] | anti-DENV activity in screening (GFP microscopy, words) (DENVGFP [7]) | further results
O[C@H]1C=C[C@@]23CCN(Cc4cc5c(cc42)OCO5)[C@@H]3C1 [Crinine, crinine] | restored virus replication completely |  |  |  |  |  |  |  |  |  | 
OC1CC2N3CCC2(c2cc4c(cc2C3)OCO4)C2OC12 (centres unmarked) [Flexinine, flexinine] | restored virus replication completely | > 250 | no effects on DENV production; also recorded: little effect | marginal effects on ZIKV production; also recorded: little effect | marginal effects on ZIKV production; also recorded: little effect | >3.9 | did not significantly impact ZIKVR2A replication | 63.4 | 216 | moderate | SI ZIKVR2A (therapeutic selectivity index) (ZIKVR2A [4]; CC50/EC50, Huh7.5): >1.15
COc1cc2c(cc1OC)[C@@H](c1ccc(O)cc1)CN(C)C2 [Gigantelline, gigantelline] |  |  |  |  |  |  |  |  |  | weak | 
COc1ccc([C@@H]2CN(C)Cc3cc(O)c(OC)cc32)cc1O [Gigantellinine, gigantellinine] | restored virus replication completely | > 250 | little effect | little effect | little effect | >2.3 | did not significantly impact ZIKVR2A replication | 105 | > 250 | moderate | production of DENV infectious particles (words) (DENV2 16881s; listed as gigantellinine): no effects on DENV production; production of ZIKV H/PF/2013 infectious particles (words) (ZIKV H/PF/2013; listed as gigantellinine): marginal effects on ZIKV production; production of ZIKV MR766 infectious particles (words) (ZIKV MR766; listed as gigantellinine): marginal effects on ZIKV production
CN1CC[C@@]23C=C[C@H](O)C[C@@H]2Oc2c(O)ccc(c23)C1 [Sanguinine, sanguinine] | restored virus replication completely |  |  |  |  |  |  |  |  | very weak | 
NC(=O)c1ncn([C@@H]2O[C@H](CO)[C@@H](O)[C@H]2O)n1 [ribavirin, reference compound] |  |  |  |  |  |  |  |  |  |  | EC50 (DENVGFP [7]; Dengue virus, Huh-7, read-out: EC50, DENVGFP infection): 100 µM
